From patent publication US11427548B2 (Arvinas Operations, Inc., priority 2015, dated 2022)
Like-named read-outs stand apart in the source and are kept apart here.

Biological target: T1, Androgen Receptor (Homo sapiens, UniProt P10275)
T1 construct: endogenous in cells; host or cells: VCaP cells
T1 sequence (P10275 1-920): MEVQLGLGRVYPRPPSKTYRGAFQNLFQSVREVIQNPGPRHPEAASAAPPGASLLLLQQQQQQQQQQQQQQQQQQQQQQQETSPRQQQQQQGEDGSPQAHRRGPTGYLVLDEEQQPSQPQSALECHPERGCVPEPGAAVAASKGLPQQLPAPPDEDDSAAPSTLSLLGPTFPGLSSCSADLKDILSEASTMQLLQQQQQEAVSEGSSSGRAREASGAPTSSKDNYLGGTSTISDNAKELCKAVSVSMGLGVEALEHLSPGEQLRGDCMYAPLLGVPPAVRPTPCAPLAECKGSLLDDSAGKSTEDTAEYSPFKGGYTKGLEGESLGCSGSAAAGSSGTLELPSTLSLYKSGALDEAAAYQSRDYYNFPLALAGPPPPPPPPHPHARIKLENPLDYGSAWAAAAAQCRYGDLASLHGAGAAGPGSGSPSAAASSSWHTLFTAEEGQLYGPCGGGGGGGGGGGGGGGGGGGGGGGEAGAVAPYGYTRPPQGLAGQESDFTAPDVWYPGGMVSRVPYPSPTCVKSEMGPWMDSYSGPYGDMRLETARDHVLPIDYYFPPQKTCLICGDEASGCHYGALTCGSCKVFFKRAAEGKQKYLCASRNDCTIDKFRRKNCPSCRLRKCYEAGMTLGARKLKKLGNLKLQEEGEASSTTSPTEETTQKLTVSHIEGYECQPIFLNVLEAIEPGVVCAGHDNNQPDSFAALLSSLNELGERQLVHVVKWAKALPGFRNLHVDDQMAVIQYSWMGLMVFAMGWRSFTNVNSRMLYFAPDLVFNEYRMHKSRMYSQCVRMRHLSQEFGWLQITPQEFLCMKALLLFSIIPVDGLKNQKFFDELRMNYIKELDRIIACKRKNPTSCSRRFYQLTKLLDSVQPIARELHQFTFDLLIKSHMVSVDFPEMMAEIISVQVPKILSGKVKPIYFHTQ
Assay: Androgen Receptor ELISA assay (PathScan AR ELISA) in VCaP cells: AR degradation, Dmax and DC50
Format: cell-based
Method in brief: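 VCaP cells in phenol red-free RPMI with 5% charcoal-stripped FBS were grown at least 3 days, then given compound as 7 half-log doses in 0.1% DMSO with 0.1 nM R1881 for 24 h. Lysates went into a sandwich AR ELISA with TMB read at 450 nm.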

[1] = VCaP cells; Table 36; read-out: VCaP DC50
[2] = VCaP, read-out: VCaP Dmax (%), VCaP cells; Table 36
[3] = VCaP, VCaP cells; Table 36; read-out: VCaP Dmax (%)
[4] = read-out: VCaP DC50; VCaP cells; Table 36

| Compound | DC50 [1] [nM] | Dmax [2] [%] | Dmax [3] [%] | Dmax (VCaP, read-out: VCaP Dmax (%)) [%] | DC50 [4] [nM] |
| --- | --- | --- | --- | --- | --- |
| Cc1ncsc1-c1ccc([C@H](C)NC(=O)[C@@H]2C[C@@H](O)CN2C(=O)[C@@H](NC(=O)[C@H](CO)N2CCN(CCOc3ccc(C(=O)N[C@H]4C(C)(C)[C@H](Oc5ccc(C#N)c(Cl)c5)C4(C)C)cc3)CC2)C(C)(C)C)cc1 [Example 655, (2S,4R)-1-((S)-2-((S)-2-(4-(2-(4-(((1r,3r)-3-(3-chloro-4-cyanophenoxy)-2,2,4,4-tetramethylcyclobutyl)carbamoyl)phenoxy)eth-yl)piperazin-1-yl)-3-hydroxypropanamido)-3,3-dimethylbutanoyl)-4-hydroxy-N-((S)-1-(4-(4-methylthiazol-5-yl)phenyl)ethyl)pyrrolidine-2-carboxamide] | > 501 | – | – | 26 to 50 | – |
| Cc1ncsc1-c1ccc([C@H](C)NC(=O)[C@@H]2C[C@@H](O)CN2C(=O)[C@@H](NC(=O)COCCCCCNc2ccc(C(=O)N[C@H]3C(C)(C)[C@H](Oc4ccc(C#N)c(Cl)c4)C3(C)C)cc2F)C(C)(C)C)cc1 [Example 656, (2S,4R)-1-((S)-2-(2-((5-((4-(((1r,3r)-3-(3-chloro-4-cyanophenoxy)-2,2,4,4-tetramethylcyclobutyl)carbamoyl)-2-fluorophenyl)amino)pentyl)oxy)acetamido)-3,3-dimethylbutanoyl)-4-hydroxy-N-((S)-1-(4-(4-methylthiazol-5-yl)phenyl)ethyl)pyrrolidine-2-carboxamide] | < 50 | > 71 | – | – | – |
| Cc1ncsc1-c1ccc([C@H](C)NC(=O)[C@@H]2C[C@@H](O)CN2C(=O)[C@@H](NC(=O)COCCCCCc2ccc(C(=O)N[C@H]3C(C)(C)[C@H](Oc4ccc(C#N)c(C(F)(F)F)c4)C3(C)C)cc2)C(C)(C)C)cc1 [Example 657, (2S,4R)-1-((S)-2-(2-((5-(4-(((1r,3r)-3-(4-cyano-3-(trifluoromethyl)phenoxy)-2,2,4,4-tetramethylcyclobutyl)carbamoyl)phenyl)pentyl)oxy)acetamido)-3,3-dimethylbutanoyl)-4-hydroxy-N-((S)-1-(4-(4-methylthiazol-5-yl)phenyl)ethyl)pyrrolidine-2-carboxamide] | < 50 | 51 to 70 | – | – | – |
| Cc1ncsc1-c1ccc(C(C)NC(=O)C2CC(O)CN2C(=O)C(NC(=O)COCCCOCCCCCOc2ccc(N3C(=S)N(c4ccc(C#N)c(C(F)(F)F)c4)C(=O)C3(C)C)cc2)C2COC2)cc1 (centres unmarked) [Example 661, 1-(2-(2-(3-((5-(4-(3-(4-cyano-3-(trifluoromethyl)phenyl)-5,5-dimethyl-4-oxo-2-thioxoimidazolidin-1-yl)phenoxy)pentyl)oxy)propoxy)acetamido)-2-(oxetan-3-yl)acetyl)-4-hydroxy-N-(1-(4-(4-methylthiazol-5-yl)phenyl)ethyl)pyrrolidine-2-carboxamide] | – | – | – | < 25 | > 501 |
| Cc1cn(-c2ccc([C@H](C)NC(=O)[C@@H]3C[C@@H](O)CN3C(=O)[C@@H](NC(=O)COCCCOCCCCCOc3ccc(N4C(=S)N(c5ccc(C#N)c(C(F)(F)F)c5)C(=O)C4(C)C)cc3)C(C)(C)C)cc2)cn1 [Example 663, (2S,4R)-1-((S)-2-(2-(3-((5-(4-(3-(4-cyano-3-(trifluoromethyl)phenyl)-5,5-dimethyl-4-oxo-2-thioxoimidazolidin-1-yl)phenoxy)pentyl)oxy)propoxy)acetamido)-3,3-dimethylbutanoyl)-4-hydroxy-N-((S)-1-(4-(4-methyl-1H-imidazol-1-yl)phenyl)ethyl)pyrrolidine-2-carboxamide] | – | – | – | < 25 | > 501 |

Further lines, with some results ahead:

| DC50 [1] [nM] | Dmax [2] [%] | Dmax [3] [%] | Compound | Dmax (VCaP, read-out: VCaP Dmax (%)) [%] | DC50 [4] [nM] |
| --- | --- | --- | --- | --- | --- |
| > 501 | – | < 25 | Cc1ncsc1-c1ccc([C@H](C)NC(=O)[C@@H]2C[C@@H](O)CN2C(=O)[C@H](c2cc(OCCN3CCN(c4ccc(C(=O)N[C@H]5C(C)(C)[C@H](Oc6ccc(C#N)c(Cl)c6)C5(C)C)cn4)CC3)no2)C(C)C)cc1 [Example 658, N-((1r,3r)-3-(3-chloro-4-cyanophenoxy)-2,2,4,4-tetramethylcyclobutyl)-6-(4-(2-((5-((S)-1-((2S,4R)-4-hydroxy-2-(((S)-1-(4-(4-methylthiazol-5-yl)phenyl)ethyl)carbam-oyl)pyrrolidin-1-yl)-3-methyl-1-oxobutan-2-yl)isoxazol-3-yl)oxy)ethyl)piperazin-1-yl)nicotinamide] | – | – |
| < 50 | – | > 71 | Cc1ncsc1-c1ccc([C@H](C)NC(=O)[C@@H]2C[C@@H](O)CN2C(=O)[C@@H](c2cc(OCCN3CCN(c4ccc(C(=O)N[C@H]5C(C)(C)[C@H](Oc6ccc(C#N)c(Cl)c6)C5(C)C)cn4)CC3)no2)C(C)C)cc1 [Example 659, N-((1r,3r)-3-(3-chloro-4-cyanophenoxy)-2,2,4,4-tetramethylcyclobutyl)-6-(4-(2-((5-((R)-1-((2S,4R)-4-hydroxy-2-(((S)-1-(4-(4-methylthiazol-5-yl)phenyl)ethyl)carbam-oyl)pyrrolidin-1-yl)-3-methyl-1-oxobutan-2-yl)isoxazol-3-yl)oxy)ethyl)piperazin-1-yl)nicotinamide] | – | – |
| > 501 | 26 to 50 | – | Cc1ncsc1-c1ccc([C@H](C)NC(=O)[C@@H]2C[C@@H](O)CN2C(=O)[C@@H](NC(=O)COCCN2CCN(c3ccc(C(=O)N[C@H]4C(C)(C)[C@H](Oc5ccc(C#N)c(Cl)c5)C4(C)C)cc3)CC2)C(C)(C)O)cc1 [Example 660, (2S,4R)-1-((S)-2-(2-(2-(4-(4-(((1r,3r)-3-(3-chloro-4-cyanophenoxy)-2,2,4,4-tetramethylcyclobutyl)carbamoyl)phenyl)piper-azin-1-yl)ethoxy)acetamido)-3-hydroxy-3-methylbutanoyl)-4-hydroxy-N-((S)-1-(4-(4-methylthiazol-5-yl)phenyl)ethyl)pyrrolidine-2-carboxamide] | – | – |
| < 50 | 51 to 70 | – | Cc1ncsc1-c1ccc([C@H](C)NC(=O)[C@@H]2C[C@@H](O)CN2C(=O)[C@@H](NC(=O)[C@H](C)OCCN2CCN(c3ccc(C(=O)N[C@H]4C(C)(C)[C@H](Oc5ccc(C#N)c(Cl)c5)C4(C)C)cc3)CC2)C(C)(C)C)cc1 [Example 664, (2S,4R)-1-((S)-2-((S)-2-(2-(4-(4-(((1r,3r)-3-(3-chloro-4-cyanophenoxy)-2,2,4,4-tetramethylcyclobutyl)carbamoyl)phenyl)piper-azin-1-yl)ethoxy)propanamido)-3,3-dimethylbutanoyl)-4-hydroxy-N-((S)-1-(4-(4-methylthiazol-5-yl)phenyl)ethyl)pyrrolidine-2-carboxamide] | – | – |
| < 50 | – | 51 to 70 | Cc1ncsc1-c1ccc([C@H](C)NC(=O)[C@@H]2C[C@@H](O)CN2C(=O)[C@@H](NC(=O)CN2CCN(CCCc3ccc(C(=O)N[C@H]4C(C)(C)[C@H](Oc5ccc(C#N)c(C(F)(F)F)c5)C4(C)C)cc3)CC2)C(C)(C)C)cc1 [Example 665, (2S,4R)-1-((S)-2-(2-(4-(3-(4-(((1r,3r)-3-(4-cyano-3-(trifluoromethyl)phenoxy)-2,2,4,4-tetramethylcyclobutyl)carbamoyl)phenyl)propyl)piperazin-1-yl)acetamido)-3,3-dimethylbutanoyl)-4-hydroxy-N-((S)-1-(4-(4-methylthiazol-5-yl)phenyl)ethyl)pyrrolidine-2-carboxamide] | – | – |
